Reference: PubChem BioAssay (NCI)
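Exposure lasted 48 hours, with cells grown in 96-well plates and compounds tested at five concentrations. GI50 is the concentration that inhibits growth by half. Definition used: TGI = concentration required for complete inhibition of growth.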

Assays:
Assay in all cases: DTP human tumour cell line panel, 48 h
T-47D breast = tested on: T-47D breast
MOLT-4 leukemia = tested on: MOLT-4 leukemia
NCI-H522 lung = tested on: NCI-H522 lung
SF-295 CNS = tested on: SF-295 CNS
HOP-62 NSCLC = tested on: HOP-62 NSCLC
LOX IMVI melanoma = tested on: LOX IMVI melanoma
K-562 leukemia = tested on: K-562 leukemia
HCT-15 colon = tested on: HCT-15 colon
OVCAR-5 ovarian = tested on: OVCAR-5 ovarian
NCI-H23 lung = tested on: NCI-H23 lung
EKVX NSCLC = tested on: EKVX NSCLC
MDA-MB-435 = tested on: MDA-MB-435
DU-145 prostate = tested on: DU-145 prostate
KM12 colon = tested on: KM12 colon
UACC-257 melanoma = tested on: UACC-257 melanoma
MDA-MB-231 breast = tested on: MDA-MB-231 breast
SK-MEL-2 melanoma = tested on: SK-MEL-2 melanoma
NCI-H460 lung = tested on: NCI-H460 lung
SN12C renal = tested on: SN12C renal
PC-3 prostate = tested on: PC-3 prostate
HL-60(TB) leukemia = tested on: HL-60(TB) leukemia
RXF 393 renal = tested on: RXF 393 renal
M14 melanoma = tested on: M14 melanoma
SF-539 CNS = tested on: SF-539 CNS
HT29 colon = tested on: HT29 colon
NCI-H226 lung = tested on: NCI-H226 lung
NCI/ADR-RES ovarian = tested on: NCI/ADR-RES ovarian
SK-OV-3 ovarian = tested on: SK-OV-3 ovarian
HS 578T breast = tested on: HS 578T breast
A549 NSCLC = tested on: A549 NSCLC
COLO 205 colon = tested on: COLO 205 colon
ACHN renal = tested on: ACHN renal
RPMI-8226 leukemia = tested on: RPMI-8226 leukemia
HCC-2998 colon = tested on: HCC-2998 colon
SF-268 CNS = tested on: SF-268 CNS
U251 CNS = tested on: U251 CNS
OVCAR-3 ovarian = tested on: OVCAR-3 ovarian
BT-549 breast = tested on: BT-549 breast
OVCAR-4 ovarian = tested on: OVCAR-4 ovarian
SK-MEL-28 melanoma = tested on: SK-MEL-28 melanoma
CAKI-1 renal = tested on: CAKI-1 renal
MALME-3M melanoma = tested on: MALME-3M melanoma
HOP-92 NSCLC = tested on: HOP-92 NSCLC
786-0 renal = tested on: 786-0 renal
SR leukemia = tested on: SR leukemia
IGROV1 ovarian = tested on: IGROV1 ovarian
MCF7 breast = tested on: MCF7 breast
UO-31 renal = tested on: UO-31 renal
SW-620 colon = tested on: SW-620 colon
HCT-116 colon = tested on: HCT-116 colon
A498 renal = tested on: A498 renal
SNB-19 CNS = tested on: SNB-19 CNS
UACC-62 melanoma = tested on: UACC-62 melanoma
SK-MEL-5 melanoma = tested on: SK-MEL-5 melanoma
TK-10 renal = tested on: TK-10 renal
SNB-75 CNS = tested on: SNB-75 CNS
CCRF-CEM leukemia = tested on: CCRF-CEM leukemia
OVCAR-8 ovarian = tested on: OVCAR-8 ovarian

Clc1ccc(/C=C2\CCCC3C2=Nc2ccccc2NC3c2ccc(Cl)cc2)cc1 (stereo unspecified)
GI50 (T-47D breast): 6.27 µM | TGI (T-47D breast): > 87.9 µM | GI50 (MOLT-4 leukemia): 4.52 µM | TGI (MOLT-4 leukemia): 30.4 µM | GI50 (NCI-H522 lung): 11.6 µM | TGI (NCI-H522 lung): 28.5 µM | GI50 (SF-295 CNS): 2.71 µM | TGI (SF-295 CNS): 8.46 µM | GI50 (HOP-62 NSCLC): 3.86 µM | TGI (HOP-62 NSCLC): 22.1 µM | GI50 (LOX IMVI melanoma): 1.74 µM | TGI (LOX IMVI melanoma): 3.18 µM | GI50 (K-562 leukemia): 3.91 µM | TGI (K-562 leukemia): 27.8 µM | GI50 (HCT-15 colon): 2.59 µM | TGI (HCT-15 colon): 7.47 µM | GI50 (OVCAR-5 ovarian): 8.63 µM | TGI (OVCAR-5 ovarian): 22.3 µM | GI50 (NCI-H23 lung): 3.43 µM | TGI (NCI-H23 lung): 15.7 µM | GI50 (EKVX NSCLC): 4.07 µM | TGI (EKVX NSCLC): 52.5 µM | GI50 (MDA-MB-435): 2.87 µM | TGI (MDA-MB-435): > 27.6 µM | GI50 (DU-145 prostate): 4.39 µM | TGI (DU-145 prostate): 23.9 µM | GI50 (KM12 colon): 2.02 µM | TGI (KM12 colon): 3.99 µM | GI50 (UACC-257 melanoma): 2.14 µM | TGI (UACC-257 melanoma): 5.88 µM | GI50 (MDA-MB-231 breast): 6.99 µM | TGI (MDA-MB-231 breast): 41.7 µM | GI50 (SK-MEL-2 melanoma): 31.3 µM | TGI (SK-MEL-2 melanoma): > 64.8 µM | GI50 (NCI-H460 lung): 4.47 µM | TGI (NCI-H460 lung): 16.4 µM | GI50 (SN12C renal): 6.81 µM | TGI (SN12C renal): 34.2 µM | GI50 (PC-3 prostate): 4.45 µM | TGI (PC-3 prostate): > 41.5 µM | GI50 (HL-60(TB) leukemia): 4.85 µM | TGI (HL-60(TB) leukemia): 33 µM | GI50 (RXF 393 renal): 1.81 µM | TGI (RXF 393 renal): 3.47 µM | GI50 (M14 melanoma): 2.07 µM | TGI (M14 melanoma): 5.19 µM | GI50 (SF-539 CNS): 4.75 µM | TGI (SF-539 CNS): 47.4 µM | GI50 (HT29 colon): 2.79 µM | TGI (HT29 colon): 7.95 µM | GI50 (NCI-H226 lung): 1.91 µM | TGI (NCI-H226 lung): 4.19 µM | GI50 (NCI/ADR-RES ovarian): 4.66 µM | TGI (NCI/ADR-RES ovarian): 52.3 µM | GI50 (SK-OV-3 ovarian): 7.49 µM | TGI (SK-OV-3 ovarian): > 100 µM | GI50 (HS 578T breast): 4.04 µM | TGI (HS 578T breast): > 27.7 µM | GI50 (A549 NSCLC): 2.88 µM | TGI (A549 NSCLC): 9.11 µM | GI50 (COLO 205 colon): 3.11 µM | TGI (COLO 205 colon): 8.2 µM | GI50 (ACHN renal): 4.42 µM | TGI (ACHN renal): > 25.4 µM | GI50 (RPMI-8226 leukemia): 1.85 µM | TGI (RPMI-8226 leukemia): 5.13 µM | GI50 (HCC-2998 colon): 1.92 µM | TGI (HCC-2998 colon): 3.55 µM | GI50 (SF-268 CNS): 4.05 µM | TGI (SF-268 CNS): > 77.7 µM | GI50 (U251 CNS): 2.05 µM | TGI (U251 CNS): 4.71 µM | GI50 (OVCAR-3 ovarian): 3.13 µM | TGI (OVCAR-3 ovarian): 9.12 µM | GI50 (BT-549 breast): 2.24 µM | TGI (BT-549 breast): 6.81 µM | GI50 (OVCAR-4 ovarian): 3.77 µM | TGI (OVCAR-4 ovarian): > 52.7 µM | GI50 (SK-MEL-28 melanoma): 7.15 µM | TGI (SK-MEL-28 melanoma): 28.4 µM | GI50 (CAKI-1 renal): 3.95 µM | TGI (CAKI-1 renal): 69.9 µM | GI50 (MALME-3M melanoma): 16.8 µM | TGI (MALME-3M melanoma): 49.2 µM | GI50 (HOP-92 NSCLC): 7.99 µM | TGI (HOP-92 NSCLC): 37.9 µM | GI50 (786-0 renal): 3.48 µM | TGI (786-0 renal): 16.2 µM | GI50 (SR leukemia): 2.6 µM | TGI (SR leukemia): 6.64 µM | GI50 (IGROV1 ovarian): 3.3 µM | TGI (IGROV1 ovarian): 10.2 µM | GI50 (MCF7 breast): 2.92 µM | TGI (MCF7 breast): > 34 µM | GI50 (UO-31 renal): 3.15 µM | TGI (UO-31 renal): 12.5 µM | GI50 (SW-620 colon): 2.96 µM | TGI (SW-620 colon): 10.6 µM | GI50 (HCT-116 colon): 1.59 µM | TGI (HCT-116 colon): 3.02 µM | GI50 (A498 renal): 2.15 µM | TGI (A498 renal): 5.79 µM | GI50 (SNB-19 CNS): 7.01 µM | TGI (SNB-19 CNS): > 100 µM | GI50 (UACC-62 melanoma): 6.7 µM | TGI (UACC-62 melanoma): 25.4 µM | GI50 (SK-MEL-5 melanoma): 2.91 µM | TGI (SK-MEL-5 melanoma): 7.19 µM | GI50 (TK-10 renal): 11 µM | TGI (TK-10 renal): > 58.5 µM | GI50 (SNB-75 CNS): 12.3 µM | TGI (SNB-75 CNS): 57.5 µM | GI50 (CCRF-CEM leukemia): 3.18 µM | TGI (CCRF-CEM leukemia): > 35.9 µM | GI50 (OVCAR-8 ovarian): 2.75 µM | TGI (OVCAR-8 ovarian): 8.31 µM
